From patent US12492410B2, “Engineered cytolytic immunecell” (Autolus Limited, priority 2018, dated 2025)

Tests used:
HEK293T cells = assay: Minocycline induced secretion of ER retained IL12, IL12 ELISA of supernatant; format: cell-based; conditions: IL12 fused to the peptide, in the presence of KDEL anchored minocycline dAb; minocycline 0 μM; all time points (2 and 4 hours)
Experimental: FIGS. 5A, 5B and 5C—Minocycline induced secretion of ER retained IL12 HEK293T cells were transiently transfected with constructs expressing the intracellular KDEL tagged anti-minocycline dAb and dAb-specific peptide (GWARA or PWAYS) tagged IL-12 (A). Transfection efficiency determined by staining for HA marker expression with transfection efficiency ranging from 50-70% (B). […] Supernatant was collected 2 and 4 hours post minocycline addition and IL12 ELISA readout carried out (C).
The KDEL amino acid sequence was used to retain proteins within the ER/Golgi apparatus. The minocycline specific dAb was tagged with the KDEL sequence (SEQ ID NO: 29) thus anchoring it within with the ER/Golgi and a molecule of interest (IL12) is in turn tagged with the peptide with affinity to the dAb causing its retention. Upon addition of minocycline, the dAb-peptide complex dissociates enabling secretion of the peptide-tagged molecule.
HEK293T cells were seeded at […] in 96-well plates to achieve confluency of 50-60% for next day transfection. A transfection master mix was made by adding 30 μL of GeneJuice transfection reagent to 470 μL plain IMDM and incubating for 5 minutes. For each well, 0.13 μg of plasmid DNA was then added to 5.2 uL of the IMDM-Genejuice master mix and incubated for 15 minutes. Transfection mix containing the GeneJuice-DNA complex was then added to the cells. […]

[1] = system: minocycline dAb (SEQ ID NO: 8); assay: Phage-peptide screening for minocycline-displaceable binding to minocycline dAb; conditions: for displaceable specificity for minocycline dAb: minocycline dAb-Fc immobilised on beads, with and without 1 μM minocycline, control antibody SEQ ID NO: 13; for affinity of peptide for minocycline dAb: stated in words
Sequence of minocycline dAb (SEQ ID NO: 8) (as listed by the source): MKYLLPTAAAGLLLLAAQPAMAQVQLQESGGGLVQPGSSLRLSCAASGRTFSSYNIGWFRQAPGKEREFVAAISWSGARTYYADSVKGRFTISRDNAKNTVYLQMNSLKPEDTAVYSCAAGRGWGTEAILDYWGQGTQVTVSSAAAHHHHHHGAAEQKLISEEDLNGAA
Experimental: FIG. 4—Graphs showing minocycline displaceable binding of peptides SEQ ID NO: 34, SEQ ID NO: 35, SEQ ID NO: 36 and SEQ ID NO: 37 to minocycline dAb (SEQ ID NO: 8) versus control antibody (SEQ ID NO: 13).
A minocycline dAb-Fc was immobilised on beads. The minocycline dAb was encoded by SEQ ID NO: 8. Phage-peptide colony screening was performed with and without 1 μM minocycline.
An antibody comprising SEQ ID NO: 13 was used as a control antibody (the control antibody comprises different CDRs to SEQ ID NO: 8).

ACPGWARAFC (minocycline peptide mimic) [SEQ ID NO: 34]
IL12 secretion (HEK293T cells): concentration dependent increase
displaceable specificity for minocycline dAb [1]: displaceable specificity
affinity of peptide for minocycline dAb [1]: high affinity

ACPHWAQAFC (minocycline peptide mimic) [SEQ ID NO: 35]
displaceable specificity for minocycline dAb [1]: displaceable specificity

ACPPWAYSFC (minocycline peptide mimic) [SEQ ID NO: 37]
IL12 secretion (HEK293T cells): concentration dependent increase
displaceable specificity for minocycline dAb [1]: displaceable specificity
affinity of peptide for minocycline dAb [1]: low affinity

ACPQWAMMFC (minocycline peptide mimic) [SEQ ID NO: 36]
displaceable specificity for minocycline dAb [1]: displaceable specificity
